Source: patent publication US7655597B1, “Pesticide compositions including polymeric adjuvants” (priority 2009, dated 2010)

System: fire ants
Experiment: fire ant kill test in insecticide-coated mason jar (time to death of entire population)
Assay type: in vivo
Conditions: Table 1
Description: In this example a series of commercially available insecticides were tested at various dilution levels and with and without a preferred copolymer, namely the AVAIL® copolymer previously described (a 40%-60% w/w aqueous composition of a saturated sodium salt of a maleic anhydride/itaconic acid copolymer in water). In each set of test runs, the selected insecticide was tested with a population of fire ants in order to determine the time required to kill the entire population.
In particular, in each test run 20 ml of the respective liquid insecticide composition was added to a mason jar and swirled around the inside bottom thereof. The liquid was then poured off and the remainder was allowed to dry on the inner jar surface, creating substantially a monomeric dried layer. The outside neck surface of the jar was then coated in talc, and the open end of the jar was placed into a fire ant nest. The talc coating prevented the aggressive fire ants from climbing the outer surface of the jar. A population of fire ants was thus established in each jar, and the jar was then topped with an apertured mason jar cap. The time to death of all of the fire ants was then recorded.
In each case, the recommended concentration of insecticide was prepared (recorded as “1X”), followed by dilutions with water to create the diluted compositions. Where copolymer was used, the copolymer was added to the insecticide with gentle mixing, at a level of 30 ml per gallon. If desired, lesser amounts of copolymer could be used, e.g., 20 ml per gallon.
In another series of tests, insecticides were tested with various copolymers having different ratios of maleic anhydride and itaconic acid moieties, and at different pH levels. In particular, respective copolymeric compositions were prepared made up of polymaleic acid, a 1:3 weight ratio of maleic anhydride to itaconic acid, a 1:1 weight ratio of maleic anhydride to itaconic acid, a 3:1 weight ratio of maleic anhydride to itaconic acid, and a 7:1 weight ratio of maleic anhydride to itaconic acid. […]

[1] = insecticide at 1X (recommended concentration), time to death of all fire ants

With `CCOC(=O)CC(SP(=S)(OC)OC)C(=O)OCC` (stereo not drawn) [malathion, 2-(dimethoxyphosphinothioylthio) butanedioic acid diethyl ester] the “TIME TO DEATH” value [1] was 1 min.
`CC1(C)C(C=C(Cl)Cl)C1C(=O)OCc1cccc(Oc2ccccc2)c1` (stereo not drawn) [permethrin, (3-phenoxyphenyl)methyl 3-(2,2-dichloroethenyl)-2,2-dimethyl-cyclopropane-1-carboxylate] was tested, and the “TIME TO DEATH” value (insecticide at 1/3X dilution) was 5 min and the “TIME TO DEATH” value [1] was 5 min.
